Measurements: patent publication US20260182575A1, “MOLECULES HAVING PESTICIDAL UTILITY AND INTERMEDIATES AND PROCESSES RELATED THERETO” (CORTEVA AGRISCIENCE LLC, priority 2022, published 2026)

Tests used:
Assay type in all cases: in vivo
[1] = tested on: Beet Armyworm (Spodoptera exigua, LAPHEG, BAW); assay: Bioassay 7: beet armyworm, artificial diet, 96 well plate; conditions: AI alone at 0.4 wt %
Protocol: (§1) The test solutions were tested against CEW, FAW, BAW, and SBL using the following procedure: an artificial lepidopteran diet (Multispecies Lepidopteran Diet, Southland Products) was distributed in 96 well plate. Twenty μL of test solution was pipetted onto a cell in the bioassay plate. […] Each treatment was replicated 5 times for each species. Approximately five first instar CEW, FAW, BAW, or SBL larva were placed on top of the diet in each cell and was contained with a clear perforated adhesive lid. Test trays were held at approximately 25° C. and ambient relative humidity prior to grading. After five days, the number of cells where all the larvae were dead were recorded as 100% and averaged across all replicates; then the percent control was measured using Abbott's correction formula (W. S. Abbott, J. Econ. Entomol. 18 (1925), pp. 265-267) as follows:
(§2) where X=No. of live larvae on solvent check and Y=No. of live larvae on treated diet. In Table 7 the “Expected % Control” was calculated using the method described in Colby S. R., Weeds, 1967, 15, 20-22. Bioassay 8: Western Corn Rootworm (Diabrotica virgifera virgifera, DIABVI, “WCR”)

[2] = tested on: Corn Earworm (Helicoverpa zea, HELIZE, CEW); assay: Bioassay 4: corn earworm, artificial diet, 128-cell tray; conditions: AI alone
Protocol: (§3) Stock solutions were prepared with F1 as well as for each of the active ingredients individually. Test solutions were prepared from the stock solutions. Test solutions were prepared containing F1, the individual active ingredients, and mixtures of F1 with each of the active ingredients. The test solution for F1 was prepared by adding 500 μL of the stock solution to a 25 mL glass vial, then adding 500 μL of a 9:1 mixture of acetone:water. The individual active ingredients were prepared by adding 500 μL of stock solution to a 25 mL glass vial, then adding 500 μL of a 9:1 mixture of acetone:water. The test solutions containing mixtures of F1, and the individual active ingredients were prepared by adding 500 μL of the active ingredient stock solution to a 25 mL glass vial, followed by 500 μL of the F1 stock solution, creating a test solution containing 0.04% (w/v) of F1 and 0.4% (w/v) of the active ingredient. Each test solution was serially diluted to create desired doses of test solutions (F1 at 0.04% (w/v), 0.004% (w/v), 0.0004% (w/v), 0.00004% (w/v), 0.000004% (w/v), and 0.0000004% (w/v) and active ingredients at 0.4% (w/v), 0.04% (w/v), 0.004% (w/v), 0.0004% (w/v), 0.00004% (w/v), and 0.000004% (w/v)).
(§4) The test solutions were tested against CEW, FAW, and SBL using the following procedure: an artificial lepidopteran diet (Multispecies Lepidopteran Diet, Southland Products) was distributed in 128-cell bioassay trays (Frontier Agricultural Sciences™). 50 μL of test solution was pipetted into a cell in the bioassay tray. (The test solution doses of 0.04% (w/v), 0.004% (w/v), 0.0004% (w/v), 0.00004% (w/v), 0.000004% (w/v), and 0.0000004% (w/v) translated to concentrations of 5, 0.5, 0.05, 0.005, 0.0005, and 0.00005 μg/cm^2 on the diet, respectively.) A reference treatment (solvent check) was treated with the diluent only. Each treatment was replicated 8 times for each species. A 2nd instar CEW, FAW, or SBL larva was placed on top of the diet in each cell and was contained with a clear perforated adhesive lid. Test trays were held at approximately 26° C. and ambient relative humidity (RH) prior to grading.
(§5) After 5 days, the number of live larvae were recorded from each cell and percent control was measured using Abbott's correction formula (W. S. Abbott, J. Econ. Entomol. 18 (1925), pp. 265-267) as follows:
(§6) where X=No. of live larvae on solvent check and Y=No. of live larvae on treated diet. In Table B4 the “Expected % Control” was calculated using the method described in Colby S. R., Weeds, 1967, 15, 20-22. Bioassay 5: Neotropical Brown Stink Bug (Euschistus heros, EUSCHE, “BSB”).

[3] = tested on: Soybean Looper (Chrysodeixis includens, PSEPIN, SBL); assay: Bioassay 4: soybean looper, artificial diet, 128-cell tray; conditions: AI alone
Protocol: as §3, §4, §5, §6

[4] = tested on: Fall Armyworm (Spodoptera frugiperda, LAPHFR, FAW); assay: Bioassay 4: fall armyworm, artificial diet, 128-cell tray; conditions: AI alone
Protocol: as §3, §4, §5, §6

[5] = tested on: Western Flower Thrips (Frankliniella occidentalis, FRANOC, WFT); assay: Bioassay 3: western flower thrips, cotton leaf disc dip; conditions: 3 days
Protocol: Stock solutions of F1 and various active ingredients were prepared initially at a concentration of 0.1 mg/mL using acetone as a diluent. Stock solutions were prepared with F1 as well as for each of the active ingredients individually. Test solutions were prepared from the stock solutions. Test solutions were prepared containing F1, the individual active ingredients, and mixtures of F1 with each of the active ingredients. The test solutions for F1 and the individual active ingredients were prepared by adding 500 μL of stock solution to a 25 mL glass vial, then adding 500 μL of acetone, followed by the addition of 9 mL water with 0.025% Tween® 20 to create a 0.0005% (w/v) solution. The test solutions containing mixtures of F1, and the individual active ingredients were prepared by adding 500 μL of the active ingredient stock solution to a 25 mL glass vial, followed by 500 μL of the F1 stock solution, then by the addition of 9 mL water with 0.025% Tween® 20 to create a test solution containing 0.0005% (w/v) F1 and 0.0005% (w/v) of the active ingredient. Each test solution was serially diluted to create desired doses of test solutions (0.0005% (w/v), 0.000125% (w/v), 0.00003125% (w/v), 0.0000078% (w/v), and 0.00000195% (w/v)).
The test solutions were tested against WFT using the following procedure: Leaf discs (2.7 cm in diameter) were cut from the true leaves of cotton plants. Leaf discs were dipped into the test solutions and shaken to ensure complete coverage of the leaf disc and then placed in Millipore® PetriSlides containing a filter paper disc. Treated leaf discs were air dried for approximately 1 hour. Each leaf disc was infested with 5 WFT (9-10-day old nymphs) by placement on each leaf disc, and the PetriSlides were capped to prevent escape. Each treatment was replicated three times and the test treatments were held at approximately 26° C. and ambient relative humidity (RH) prior to grading. Reference discs (solvent check) were treated with the diluent only. Evaluation was conducted by counting the number of live WFT under magnification 3 days after treatment. Percent control was measured using Abbott's correction formula (W. S. Abbott, J. Econ. Entomol. 18 (1925), pp. 265-267) as follows:
where X=No. of live nymphs on solvent check leaf discs and Y=No. of live nymphs on treated leaf discs. In Table B3 the “Expected % Control” was calculated using the method described in Colby S. R., Weeds, 1967, 15, 20-22. Bioassay 4: Corn Earworm (Helicoverpa zea, HELIZE, “CEW”), Fall Armyworm (Spodoptera frugiperda, LAPHFR, “FAW”), and Soybean Looper (Chrysodeixis includens, PSEPIN, “SBL”).

[6] = tested on: Corn Earworm (Helicoverpa zea, HELIZE, CEW); assay: Bioassay 7: corn earworm, artificial diet, 96 well plate; conditions: AI alone at 0.4 wt %
Protocol: as §1, §2

[7] = tested on: Soybean Looper (Chrysodeixis includens, PSEPIN, SBL); assay: Bioassay 7: soybean looper, artificial diet, 96 well plate; conditions: CL; AI alone at 0.4 wt %
Protocol: as §1, §2

[8] = AI alone at 1:1 rate to F1 3.125 (10^-6 Wt %)
[9] = AI alone at 1:1 rate to F1 0.195 (10^-6 Wt %)

| Molecule | Average % Control AI [1] [%] | Average % Control AI ([2]; 0.000004 wt %) [%] | Average % Control AI ([2]; 0.00004 wt %) [%] | Average % Control AI ([3]; 0.000004 wt %) [%] | Average % Control AI ([4]; 0.000004 wt %) [%] | also measured |
| --- | --- | --- | --- | --- | --- | --- |
| N#Cc1c[nH]cc1-c1cccc2c1OC(F)(F)O2 [Fludioxonil] | 0.0 |  |  |  |  |  |
| Dinotefuran |  | 0.0 | 0.0 |  |  |  |
| Cn1cc(C(=O)Nc2ccccc2-c2cc(F)c(F)c(F)c2)c(C(F)F)n1 [Fluxapyroxad] | 0.0 |  |  |  |  |  |
| O=C(NCCc1ncc(C(F)(F)F)cc1Cl)c1ccccc1C(F)(F)F [Fluopyram] | 0.0 |  |  |  |  |  |
| CCOC(=O)OC1=C(c2cc(C)ccc2C)C(=O)N[C@]12CC[C@@H](OC)CC2 [Spirotetramat] |  | 0.0 | 0.0 | 12.5 | 0.0 |  |
| CC(c1ccc(C(F)(F)F)nc1)S(C)(=O)=NC#N (centres unmarked) [Sulfoxaflor] |  | 0.0 | 0.0 | 12.5 | 0.0 |  |
| Spinosad |  | 0.0 | 0.0 | 0.0 | 12.5 | Average % Control AI [5, 8]: 57.1% |
| O=C(N=c1ccccn1Cc1ccc(Cl)nc1)C(F)(F)F [Flupyrimin] |  | 0.0 | 0.0 | 0.0 | 0.0 | Average % Control AI ([3]; 0.00004 wt %): 0.0%; Average % Control AI ([4]; 0.00004 wt %): 0.0%; Average % Control AI [5, 9]: 4.8% |
| Thiram |  |  |  |  |  | Average % Control AI [6]: 0.0%; Average % Control AI [7]: 0.0% |
| Tetraniliprole |  | 0.0 | 0.0 | 0.0 | 0.0 | Average % Control AI ([3]; 0.00004 wt %): 12.5%; Average % Control AI ([4]; 0.00004 wt %): 50.0%; Average % Control AI ([2]; 0.0004 wt %): 12.5%; Average % Control AI [5, 9]: 0.0%; Average % Control AI ([5]; AI alone at 1:1 rate to F1 0.78 (10^-6 Wt %)): 5.7%; Average % Control AI [5, 8]: 0.0%; Average % Control AI ([5]; AI alone at 1:1 rate to F1 12.5 (10^-6 Wt %)): 12.6%; Average % Control AI ([5]; AI alone at 1:1 rate to F1 50 (10^-6 Wt %)): 0.0% |
| Tebuconazole |  |  |  |  |  | Average % Control AI [6]: 0.0% |
| CC1(C)CCC(Cc2ccc(Cl)cc2)C1(O)Cn1cncn1 (centres unmarked) [Metconazole] | 0.0 |  |  |  |  |  |
